Consider 5 molecules from article PMC11035592, “Intranasal oxytocin suppresses seizure-like behaviors in a mouse model of NGLY1 deficiency” (Communications Biology, 2024).

In data set [1] the test system is patients with NGLY1 deficiency. Conditions: cited from earlier work. An excerpt: For epileptic seizures in patients with NGLY1 deficiency, some approved drugs, including levetiracetam, valproate, lamotrigine, and clobazam, have been tested; however, their efficacies were limited.
The nature of data set [2]: Oxytocin levels in plasma, brain and spinal cord 5 min after intranasal oxytocin (enzyme immunoassay). The format is in vivo, mouse. Details: Oxytocin level, Thalamus, Mean / Oxytocin level, Hypothalamus, Mean / Oxytocin level, Cortex, Mean / Oxytocin level, Spinal cord, Mean / Oxytocin level, Striatum, Mean / Oxytocin level, Hippocampus, Mean: unit not given here. Conditions: for Oxytocin level, Cortex, Mean / Oxytocin level, Hippocampus, Mean / Oxytocin level, Hypothalamus, Mean / Oxytocin level, Plasma, Mean / Oxytocin level, Spinal cord, Mean / Oxytocin level, Striatum, Mean / Oxytocin level, Thalamus, Mean: mean of n = 3; for Oxytocin level, Cortex, % of Control / Oxytocin level, Hippocampus, % of Control / Oxytocin level, Hypothalamus, % of Control / Oxytocin level, Spinal cord, % of Control / Oxytocin level, Striatum, % of Control / Oxytocin level, Thalamus, % of Control: mean, figure corresponds to % of the plasma 0 mg/kg mean; for Oxytocin level, Plasma, % of Control: mean as % of 0 mg/kg plasma mean. The method, then:
Delivery of intranasal oxytocin to the central nervous system was confirmed using 17 to 18-week-old female Ngly1^−/− mice.
Fig. 5 Oxytocin levels in the plasma, brain, and spinal cord of Ngly1^−/− mice after intranasal administration of oxytocin. Oxytocin (10, 100 mg/kg) or saline was intranasally administered to female Ngly1^−/− mice (17 or 18-week-old) under anesthesia with 2.5% isoflurane (a). b Plasma, c hippocampus, d striatum, e cerebral cortex, f spinal cord, g thalamus, and h hypothalamus were collected 5 min after the single administration. Oxytocin levels were measured using enzyme immunoassay. Data represent mean + standard deviation and individual values (N = 3). […]
Oxytocin peptide (CAS number 50-56-6) was purchased from AA Blocks (San Diego, CA, USA) and dissolved in saline at a maximum concentration of 200 mg/mL. Female Ngly1^−/− mice were anesthetized with 2.5% isoflurane and intranasally administered with oxytocin using a manual pipette at a volume of 0.5 ml/kg. Oxytocin solutions were prepared in Protein LoBind Tubes (Eppendorf, Hamburg, Germany) just before the intranasal administration.

In data set [3] the test system is generally healthy older men (55–95 years old). Conditions: chronic intranasal administration, twice daily for four weeks; cited from earlier work. An excerpt: (§1) The safety of single or chronic intranasal oxytocin administration has been investigated in several clinical studies. […] Based on these clinical studies, oxytocin has the potential to be administered to patients with NG ...

Data set [4] deals with school-age children (8–12 years old). Particulars: 90 min and 24 h after a single intranasal administration; cited from earlier work.
Excerpt: as §1

[5] abbreviates: female Ngly1−/− mice, 17 to 18-week-old, 10 or 100 mg/kg single intranasal, 5 min after administration, enzyme immunoassay, N = 3, vs saline.

With `CCCC(CCC)C(=O)O` [valproate], in data set [1], the “efficacy for epileptic seizures” value is “limited”.

`CC[C@H](C)[C@@H]1NC(=O)[C@H](Cc2ccc(O)cc2)NC(=O)[C@@H](N)CSSC[C@@H](C(=O)N2CCC[C@H]2C(=O)N[C@@H](CC(C)C)C(=O)NCC(N)=O)NC(=O)[C@H](CC(N)=O)NC(=O)[C@H](CCC(N)=O)NC1=O` [oxytocin, Oxytocin]: in data set [2] (10 mg/kg intranasal), the “Oxytocin level, Cortex, Mean” value came out at 2.20; the “Oxytocin level, Cortex, % of Control” value is reported as 0.776%; the “Oxytocin level, Hippocampus, Mean” value came out at 8.47; the “Oxytocin level, Hippocampus, % of Control” value came to 3%. Also, in data set [2] (10 mg/kg intranasal), the “Oxytocin level, Hypothalamus, Mean” value is 87.40; the “Oxytocin level, Hypothalamus, % of Control” value was 31%; the “Oxytocin level, Plasma, % of Control” value was determined as 4479%; the “Oxytocin level, Plasma, Mean” value came to 12705.67. Moreover, in data set [2] (10 mg/kg intranasal), the “Oxytocin level, Spinal cord, Mean” value turned out to be 2.17; the “Oxytocin level, Spinal cord, % of Control” value is 0.764%; the “Oxytocin level, Striatum, Mean” value was determined as 2.60; the “Oxytocin level, Striatum, % of Control” value is recorded as 0.917%. In addition, in data set [2] (10 mg/kg intranasal), the “Oxytocin level, Thalamus, Mean” value was determined as 3.40 and the “Oxytocin level, Thalamus, % of Control” value worked out at 1.2%. In addition, in data set [2] (100 mg/kg intranasal), the “Oxytocin level, Cortex, Mean” value was found to be 15.07; the “Oxytocin level, Cortex, % of Control” value came out at 5.31%; the “Oxytocin level, Hippocampus, Mean” value worked out at 23.47; the “Oxytocin level, Hippocampus, % of Control” value was determined as 8%. Also, in data set [2] (100 mg/kg intranasal), the “Oxytocin level, Hypothalamus, Mean” value stood at 132.73; the “Oxytocin level, Hypothalamus, % of Control” value amounted to 47%; the “Oxytocin level, Plasma, % of Control” value is listed as 26235%; the “Oxytocin level, Plasma, Mean” value is given as 74420.67. Besides, in data set [2] (100 mg/kg intranasal), the “Oxytocin level, Spinal cord, Mean” value turned out to be 4.10; the “Oxytocin level, Spinal cord, % of Control” value is recorded as 1.45%; the “Oxytocin level, Striatum, Mean” value is given as 24.23; the “Oxytocin level, Striatum, % of Control” value is given as 8.54%. Moreover, in data set [2] (100 mg/kg intranasal), the “Oxytocin level, Thalamus, Mean” value is on record as 42.47 and the “Oxytocin level, Thalamus, % of Control” value came to 15%. In data set [2] (setting [5]), the “increasing trend of oxytocin level in hypothalamus” value is recorded as “not observed”, the “oxytocin level in cerebral cortex” value is “increased”, the “oxytocin level in hippocampus” value is “increased” and the “oxytocin level in plasma” value is “increased”. In data set [2] (setting [5]), the “oxytocin level in spinal cord” value is given as “increased”, the “oxytocin level in striatum” value was “increased” and the “oxytocin level in thalamus” value is reported as “increasing trend”. The tolerability entry in data set [3] is listed as “well-tolerated”. The side-effects entry in data set [4] is given as “no side-effect”.

`CN1C(=O)CC(=O)N(c2ccccc2)c2cc(Cl)ccc21` [clobazam]: in data set [1], the “efficacy for epileptic seizures” value is given as “limited”.

Take `CC[C@@H](C(N)=O)N1CCCC1=O` [levetiracetam]: the “efficacy for epileptic seizures” value in data set [1] is recorded as “limited”.

`Nc1nnc(-c2cccc(Cl)c2Cl)c(N)n1` [lamotrigine]: the “efficacy for epileptic seizures” value in data set [1] is recorded as “limited”.
